Data reported in ChEMBL document CHEMBL4020763, “N-(1H-Pyrazol-3-yl)quinazolin-4-amines as a novel class of casein kinase 1δ/ε inhibitors: Synthesis, biological evaluation and molecular modeling studies” (Bioorg Med Chem Lett, 2017).

Key:
[1] = Inhibition of M-phase starfish oocytes CDK1/cyclin B using histone H1 as substrate after 30 mins in presence of ATP by scintillation counting method; design: species or system Asteroidea
[2] = molecular target: CDK2/Cyclin A2 (Homo sapiens, UniProt P24941); assay: Inhibition of recombinant human CDK2/cyclin A using histone H1 as substrate after 30 mins in presence of ATP by scintillation counting method; format: protein-complex assay
[3] = Inhibition of porcine brain CK1-delta/epsilon using CSK peptide as substrate after 30 mins in presence of ATP by scintillation counting method; design: species or system Sus scrofa
[4] = molecular target: Dual specificity protein kinase CLK1 (Mus musculus, UniProt P22518); assay: Inhibition of recombinant mouse GST-fused CLK1 expressed in Escherichia coli using RS peptide as substrate after 30 mins in presence of ATP by scintillation counting method
Sequence of Dual specificity protein kinase CLK1 (P22518 whole entry, the tested form may be a part): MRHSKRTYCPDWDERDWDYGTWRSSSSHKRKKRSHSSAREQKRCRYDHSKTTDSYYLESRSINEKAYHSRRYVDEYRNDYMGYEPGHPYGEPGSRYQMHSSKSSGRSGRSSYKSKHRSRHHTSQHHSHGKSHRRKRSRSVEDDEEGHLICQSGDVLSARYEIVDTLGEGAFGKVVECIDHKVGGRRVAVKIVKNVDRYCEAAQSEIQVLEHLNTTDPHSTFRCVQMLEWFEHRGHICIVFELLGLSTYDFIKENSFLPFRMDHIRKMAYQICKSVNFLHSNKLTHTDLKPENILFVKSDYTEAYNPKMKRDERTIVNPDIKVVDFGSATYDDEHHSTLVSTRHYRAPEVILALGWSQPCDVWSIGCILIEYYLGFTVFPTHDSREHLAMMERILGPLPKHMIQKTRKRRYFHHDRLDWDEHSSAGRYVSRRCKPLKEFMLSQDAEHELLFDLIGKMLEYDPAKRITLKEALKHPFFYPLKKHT

[5] = molecular target: Glycogen synthase kinase-3 (Sus scrofa, UniProt B2LUN4+I6LNT8); assay: Inhibition of porcine brain GSK-3 alpha/beta using YRRAAVPPSPSLSRHSSPHQpSEDEEE as substrate after 30 mins in presence of ATP by scintillation counting method
[6] = tested on: MDA-MB-231; assay: Cytotoxicity against human MDA-MB-231 cells by MTT assay; format: functional, cell-based
[7] = tested on: MDA-MB-468; assay: Cytotoxicity against human MDA-MB-468 cells by MTT assay; format: functional, cell-based
[8] = tested on: MDA-MB-231; assay: Growth inhibition of human MDA-MB-231 cells at 100 uM by MTT assay relative to control; format: functional; conditions: read-out: GI
[9] = tested on: BT-20; assay: Cytotoxicity against human BT20 cells by MTT assay; format: functional, cell-based
[10] = tested on: MCF7; assay: Cytotoxicity against human MCF7 cells by MTT assay; format: functional, cell-based
[11] = tested on: ZR-75-1; assay: Cytotoxicity against human ZR-75-1 cells by MTT assay; format: functional, cell-based
[12] = tested on: ZR-75-30; assay: Cytotoxicity against human ZR-7530 cells by MTT assay; format: functional, cell-based
[13] = tested on: MIA PaCa-2; assay: Cytotoxicity against human MIAPaCa2 cells by MTT assay; format: functional, cell-based
[14] = tested on: PANC-1; assay: Cytotoxicity against human PANC1 cells by MTT assay; format: functional, cell-based
[15] = tested on: A549; assay: Cytotoxicity against human A549 cells by MTT assay; format: functional, cell-based
[16] = tested on: HCT-15; assay: Cytotoxicity against human HCT15 cells by MTT assay; format: functional, cell-based
[17] = tested on: HEK293; assay: Cytotoxicity against HEK293 cells by MTT assay; format: cell-based; conditions: Homo sapiens
[18] = molecular target: Dual specificity tyrosine-phosphorylation-regulated kinase 1A (Homo sapiens) (UniProt Q13627); assay: Inhibition of recombinant full length human GST-fused DYRK1A expressed in Escherichia coli at 10 uM using RS peptide as substrate after 30 mins in presence of ATP by scintillation counting method relative to control
[19] = molecular target: Dual specificity protein kinase CLK1 (Mus musculus) (UniProt P22518); assay: Inhibition of recombinant mouse GST-fused CLK1 expressed in Escherichia coli at 10 uM using RS peptide as substrate after 30 mins in presence of ATP by scintillation counting method relative to control
Sequence of Dual specificity protein kinase CLK1 (Mus musculus) (P22518 whole entry, looked up, the tested form may be a part): as the sequence (P22518 whole entry, the tested form may be a part) above

[20] = species: Sus scrofa; assay: Inhibition of porcine brain CK1-delta/epsilon at 10 uM using CSK peptide as substrate after 30 mins in presence of ATP by scintillation counting method relative to control
[21] = molecular target: CDK9/cyclin T1 (Homo sapiens) (UniProt O60563+P50750); assay: Inhibition of recombinant human CDK9/cyclin T expressed in insect cells at 10 uM using YSPTSPSYSPTSPSYSPTSPSKKKK as substrate after 30 mins in presence of ATP by scintillation counting method relative to control
[22] = molecular target: Cyclin-dependent kinase 5/CDK5 activator 1 (Homo sapiens) (UniProt Q00535+Q15078); assay: Inhibition of recombinant human CDK5/p25 expressed in Escherichia coli at 10 uM using histone H1 as substrate after 30 mins in presence of ATP by scintillation counting method relative to control
Sequence of Cyclin-dependent kinase 5/CDK5 activator 1 (Homo sapiens) (Q00535 whole entry): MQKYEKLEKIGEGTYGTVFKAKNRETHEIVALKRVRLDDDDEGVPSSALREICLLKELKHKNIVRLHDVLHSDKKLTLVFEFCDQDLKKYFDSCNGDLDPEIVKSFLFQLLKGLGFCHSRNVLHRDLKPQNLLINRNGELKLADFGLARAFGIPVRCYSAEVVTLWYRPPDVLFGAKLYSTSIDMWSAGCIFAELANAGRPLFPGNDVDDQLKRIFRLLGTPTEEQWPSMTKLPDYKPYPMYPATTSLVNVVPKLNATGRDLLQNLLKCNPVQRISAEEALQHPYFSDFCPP
Sequence of Cyclin-dependent kinase 5/CDK5 activator 1 (Homo sapiens) (Q15078 99-307 partner limits assumed): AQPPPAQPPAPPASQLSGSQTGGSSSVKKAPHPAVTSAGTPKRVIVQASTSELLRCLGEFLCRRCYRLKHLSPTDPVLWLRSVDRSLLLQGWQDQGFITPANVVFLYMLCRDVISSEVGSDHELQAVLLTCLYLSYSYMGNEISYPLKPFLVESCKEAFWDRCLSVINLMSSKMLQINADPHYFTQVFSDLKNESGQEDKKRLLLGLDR

[23] = molecular target: CDK2/Cyclin A2 (Homo sapiens) (UniProt P24941+P20248); assay: Inhibition of recombinant human CDK2/cyclin A at 10 uM using histone H1 as substrate after 30 mins in presence of ATP by scintillation counting method relative to control; format: protein-complex assay
[24] = tested on: Asteroidea; assay: Inhibition of M-phase starfish oocytes CDK1/cyclin B at 10 uM using histone H1 as substrate after 30 mins in presence of ATP by scintillation counting method relative to control
[25] = molecular target: Glycogen synthase kinase-3 (Sus scrofa) (UniProt B2LUN4+I6LNT8); assay: Inhibition of porcine brain GSK-3 alpha/beta at 10 uM using YRRAAVPPSPSLSRHSSPHQpSEDEEE as substrate after 30 mins in presence of ATP by scintillation counting method relative to control
[26] = tested on: MDA-MB-468; assay: Growth inhibition of human MDA-MB-468 cells at 100 uM by MTT assay relative to control; format: functional; conditions: read-out: GI
[27] = tested on: BT-20; assay: Growth inhibition of human BT20 cells at 100 uM by MTT assay relative to control; format: functional; conditions: read-out: GI
[28] = tested on: MCF7; assay: Growth inhibition of human MCF7 cells at 100 uM by MTT assay relative to control; format: functional; conditions: read-out: GI
[29] = tested on: ZR-75-1; assay: Growth inhibition of human ZR-75-1 cells at 100 uM by MTT assay relative to control; format: functional; conditions: read-out: GI
[30] = tested on: ZR-75-30; assay: Growth inhibition of human ZR-7530 cells at 100 uM by MTT assay relative to control; format: functional; conditions: read-out: GI
[31] = tested on: MIA PaCa-2; assay: Growth inhibition of human MIAPaCa2 cells at 100 uM by MTT assay relative to control; format: functional; conditions: read-out: GI
[32] = tested on: PANC-1; assay: Growth inhibition of human PANC1 cells at 100 uM by MTT assay relative to control; format: functional; conditions: read-out: GI
[33] = tested on: A549; assay: Growth inhibition of human A549 cells at 100 uM by MTT assay relative to control; format: functional; conditions: read-out: GI
[34] = tested on: HCT-15; assay: Growth inhibition of human HCT15 cells at 100 uM by MTT assay relative to control; format: functional; conditions: read-out: GI
[35] = tested on: DU-145; assay: Growth inhibition of human DU145 cells at 100 uM by MTT assay relative to control; format: functional; conditions: read-out: GI
[36] = Growth inhibition of HEK293 cells at 100 uM by MTT assay relative to control; format: cell-based; conditions: human, read-out: GI

For `COc1cc2ncnc(Nc3cc(-c4ccccc4)[nH]n3)c2cc1OC`, which IC50 [1] is on record?
The IC50 was > 10 µM.

What about the IC50 [2] of the same compound?
The IC50 was > 10 µM.

And the IC50 [3]?
The IC50 was 1.6 µM.

And the IC50 [4]?
The IC50 was > 10 µM.

And the IC50 [5]?
The IC50 was > 10 µM.

And the IC50 [6]?
The IC50 was > 100 µM.

What about the IC50 [7] of the same compound?
Its IC50 is > 100 µM.

What about the inhibition of growth at 100 µM [8] of the same compound?
The inhibition of growth at 100 µM was > 50%.

And the IC50 [9]?
Its IC50 is > 100 µM.

And the IC50 [10]?
The IC50 was > 100 µM.

And the IC50 [11]?
Its IC50 is > 100 µM.

And the IC50 [12]?
Its IC50 is > 100 µM.

What about the IC50 [13] of the same compound?
The IC50 was > 100 µM.

What about the IC50 [14] of the same compound?
Its IC50 is 9.3 µM.

What about the IC50 [15] of the same compound?
The IC50 was 29.7 µM.

And the IC50 [16]?
The IC50 was > 100 µM.

What about the IC50 [17] of the same compound?
The IC50 was 71.1 µM.

And the inhibition [18]?
Its inhibition is > 50%.

What about the inhibition [19] of the same compound?
The inhibition was > 50%.

What about the inhibition [20] of the same compound?
Its inhibition is > 50%.

What about the inhibition [21] of the same compound?
Its inhibition is > 50%.

What about the inhibition [22] of the same compound?
Its inhibition is > 50%.

What about the inhibition [23] of the same compound?
The inhibition was > 50%.

What about the inhibition [24] of the same compound?
The inhibition was > 50%.

And the inhibition [25]?
Its inhibition is > 50%.

What about the inhibition of growth at 100 µM [26] of the same compound?
Its inhibition of growth at 100 µM is > 50%.

And the inhibition of growth at 100 µM [27]?
The inhibition of growth at 100 µM was > 50%.

What about the inhibition of growth at 100 µM [28] of the same compound?
The inhibition of growth at 100 µM was > 50%.

What about the inhibition of growth at 100 µM [29] of the same compound?
The inhibition of growth at 100 µM was > 50%.

What about the inhibition of growth at 100 µM [30] of the same compound?
Its inhibition of growth at 100 µM is > 50%.

And the inhibition of growth at 100 µM [31]?
The inhibition of growth at 100 µM was > 50%.

What about the inhibition of growth at 100 µM [32] of the same compound?
Its inhibition of growth at 100 µM is > 50%.

And the inhibition of growth at 100 µM [33]?
Its inhibition of growth at 100 µM is > 50%.

What about the inhibition of growth at 100 µM [34] of the same compound?
The inhibition of growth at 100 µM was > 50%.

And the inhibition of growth at 100 µM [35]?
The inhibition of growth at 100 µM was > 50%.

What about the inhibition at 100 µM [36] of the same compound?
The inhibition at 100 µM was > 50%.
